Results: BindingDB's records for doi:10.1016/0960-894X(96)00183-7 (1996)

Molecular target: alpha-L-fucosidase (Bos taurus)
Assay: Compound was tested for inhibition of alpha-fucosidase from bovine kidney.

Ki: 23.4 µM
SMILES: O[C@H]1[C@H](O)[C@H](O)CN(Cc2ccccc2)C[C@H]1O [1-Benzyl-azepane-3,4,5,6-tetraol]
